The values below come from PMC12114947, “Evaluation of Violacein Metabolic Stability and Metabolite Identification in Human, Mouse, and Rat Liver Microsomes” (Pharmaceutics, 2025).

The nature of the data set: In vitro metabolic stability in rat liver microsomes. The class given is in vitro ADME. The procedure:
After removal, a pool consisting of livers from five naïve male rats and five C57BL male mice was immediately placed in a 50 mM Tris-HCl buffer, pH 7.4, containing 150 mM KCl. The livers were diced with scissors and washed three times with buffer, followed by homogenization with 20 mL of buffer in a Potter-type homogenizer (three cycles, with each cycle comprising three grindings of 1 min each at 1000 rpm). The homogenate was centrifuged at 10,000× g for 15 min at 4 °C. The resulting supernatant was then ultracentrifuged at 100,000× g for 60 min at 4 °C to obtain the microsomal pellet, which was resuspended in 50 mM HEPES-HCl buffer, pH 7.4, containing 20% glycerol and 1 mM EDTA.
The metabolic stability of volacein was assessed as described by Godoi et al. and Antunes et al.. Aliquots (4 µL) of 100 µM violacein working solution and 96 µL of the NADPH-regenerating system, containing 1.1 mM NADP^+, 10 mM glucose-6-phosphate, 1 U/mL glucose-6-phosphate dehydrogenase, 5 mM sodium citrate, and 66 mM magnesium chloride in 100 mM phosphate buffer, pH 7.4, were transferred to propylene tubes and pre-incubated for 5 min in an MTC 100 thermo shaker incubator (Miulab, Zhejiang, China) at 300 rpm and 37 °C. Subsequently, the metabolic reactions were initiated by adding 100 μL of microsomal proteins from HLMs, RLMs, and MLMs at a concentration of 2 mg/mL to the pre-incubated shaking tubes, resulting in final concentrations of 2 μM for violacein and 1 mg/mL for microsomal proteins. In this experiment, seven incubation times were planned for each species (0, 3, 5, 15, 30, 60, and 120 min), in triplicate. At each time interval, the reactions were stopped by adding 400 μL of ice-cold acetonitrile spiked with 10 µM omeprazole (IS) to each tube. Finally, the samples were vortexed for 5 min in a BenchMixer^TM XL (Benchmark, NJ, USA) and centrifuged at 12,000× g for 15 min at 4 °C (Hettich® Universal 320 R, Tuttlingen, Germany). The supernatants were transferred to a 96-well plate and 8 μL was injected into the LC-MS/MS system (see Section 2.3).
All incubations were performed simultaneously with positive and negative controls. The positive controls were prepared by incubating dapaconazole at the same conditions as violacein (final concentrations: 2 μM) and its metabolic stability was compared with previous studies. Similarly, the negative controls were prepared by incubating violacein in buffer solution, in the absence of microsome and cofactor solutions.
Violacein was analyzed using LC-MS/MS (LC-QQQ MS, LCMS8045, Shimadzu, Kyoto, Japan). Chromatographic separation was achieved on a Raptor^TM Biphenyl column (2.1 × 100 mm, 2.7 μm) at 40 °C. The mobile phases consisted of water (mobile phase A) and methanol (mobile phase B), both containing 2 mM ammonium formate and 0.1% (v/v) formic acid. A flow rate of 0.3 mL/min was used with an elution gradient starting at 20% mobile phase B and holding for 0.2 min, followed by a linear increase to 95% mobile phase B over 2 min that was then maintained for 1 min, with a return to the initial condition in 0.2 min. The total chromatographic run time was 5 min.
In vitro t1/2 was calculated using to the following equation [60, 61]:(1) t1/2=ln(2)/k where k is the slope of the log-linear regression graph of the percentage of drug remaining as a function of time.
CLint, in vitro was calculated using to the following equation [60, 61]:(2) CLint, in vitro=0.693/t1/2×Vincubation/mmicrosomes where Vincubation indicates the volume of the incubation in μL and mmicrosomes indicates the mass of microsomal proteins added to the incubation solution in mg. […]
In general terms: Liver microsomes are a subcellular fraction often used to study metabolism.

One may read the microsomal CLint as the capacity of the preparation to metabolise the compound, expressed as a volume cleared per time. A high value points to faster metabolism. Take `O=C1NC(c2c[nH]c3ccc(O)cc23)=C/C1=C1\C(=O)Nc2ccccc21` [violacein]: the “CLint, in vitro” value (RLMs) is given as 38.41 µL/min/mg. The “Ln Z” value reads like this: (RLMs, time 0 min) 4.605; (RLMs, time 3 min) 4.495; (RLMs, time 5 min) 4.101; (RLMs, time 15 min) 3.832; (RLMs, time 30 min) 3.371; (RLMs, time 60 min) 2.549. Moreover, under “RLMs, time 120 min”, the “Ln Z” value is listed as 1.899. Besides, the “Z (%), remaining percentage of violacein” value (RLMs, time 0 min) is reported as 100%; the “Z (%), remaining percentage of violacein” value (RLMs, time 3 min) stood at 90%; the “Z (%), remaining percentage of violacein” value (RLMs, time 5 min) was found to be 60%; the “Z (%), remaining percentage of violacein” value (RLMs, time 15 min) is 46%; the “Z (%), remaining percentage of violacein” value (RLMs, time 30 min) turned out to be 29%; the “Z (%), remaining percentage of violacein” value (RLMs, time 60 min) is 13%. Also, the “Z (%), remaining percentage of violacein” value (RLMs, time 120 min) was 7%. For the same compound, the “Slope (k), metabolism rate constant” value (RLMs, ln remaining % vs incubation time) was “y = −0.0192x + 4.0344 r^2 = 0.9459 Slope (k) = 0.0192”. This compound returned a microsomal CLint at 2 µM (male, rat, rat liver microsomes, pH 7.4, RLMs) of 38.4 µL/min/mg. Further, the CLint scaled at 2 µM (male, rat, rat liver microsomes, pH 7.4, rat, extrapolated from CLint, in vitro by allometric scaling, read-out: CLint, in vivo) is 93.7 mL/min/kg. For the same compound, under “male, rat, rat liver microsomes, pH 7.4, RLMs, 2 μM violacein, 1 mg/mL microsomal protein, NADPH-regenerating system, 37 °C, n = 3, read-out: In vitro elimination half-life (t1/2)”, the half-life at 2 µM was 36 min. Further, the “CLint, in vivo” value (rat, extrapolated from CLint, in vitro by allometric scaling) was 93.72 mL/min/kg.
